Measurements published in patent US8329447B2, “Strain of Lactobacillus crispatus” (Osel, Inc., priority 2008, dated 2012).
“Also recorded” adds a separate entry of the source.

test system: SJ-3C cells; experiment: Agar overlay disc diffusion antibiotic susceptibility; format: cell-based, Lactobacillus crispatus; conditions: BBL Sensi-Disc on MRS agar overlay, 37° C. overnight anaerobically

CCC[C@@H]1C[C@@H](C(=O)N[C@@H]([C@H]2O[C@H](SC)[C@H](O)[C@@H](O)[C@H]2O)[C@@H](C)O)N(C)C1 [lincomycin] was tested. Which “antibiotic susceptibility or resistance of SJ-3C” value did it give?
Its value is “resistance; also recorded: resistant”.

gentamicin was tested. Which “antibiotic susceptibility or resistance of SJ-3C” value did it give?
The value was “resistance”.

With sulfamethoxazole-trimethoprim as the compound, how does the “antibiotic susceptibility or resistance of SJ-3C” value read?
Its value is “resistance”.

Which “antibiotic susceptibility or resistance of SJ-3C” value does the source give for Cc1ncc([N+](=O)[O-])n1CCO [metronidazole] here?
Its value is “resistance”.

How did the “antibiotic susceptibility or resistance of SJ-3C” value turn out when C[C@@H]1O[C@@H]1P(=O)(O)O [fosfomycin] was run?
The value was “resistance”.

For O=C(O)c1cn(C2CC2)c2cc(N3CCNCC3)c(F)cc2c1=O [ciprofloxacin], which “antibiotic susceptibility or resistance of SJ-3C” value is on record?
The value was “resistance”.

With Cc1noc(NS(=O)(=O)c2ccc(N)cc2)c1C [sulfisoxazole] as the compound, how does the “antibiotic susceptibility or resistance of SJ-3C” value read?
The value was “resistance”.
